Reference: US20050106153A1, “Combined physical and immunotherapy for cancer” (WOUND HEALING OF OKLAHOMA, priority 1995, published 2005)

Tested on: DMBA-4 metastatic transplantable rat mammary tumor
Assay: Survival of rats with tumor transplant after laser/sensitizer assisted immunotherapy
Format: in vivo, Wistar Furth female rats
From the text: A diode laser was used in this study. The Industrial Semiconductor Laser ISL50F (McDonnell Douglas Aerospace, St. Louis, Mo.), employs a diode array that is electrically powered by a diode driver. The laser emits radiation at wavelength of 808±10 nm, either in pulsed or in continuous mode. Its maximum near infrared power in the available configuration output is 35 watts. The laser is operated with standard electric power (110/120 VAC). A microprocessor monitors and adjusts the laser operating parameters. Laser energy can be delivered through optical fibers of various sizes. A red laser diode emits 670 nm light at 0.9 mW as the aiming beam. The continuous wave mode was employed in this experiment.
In the experiment, different power and duration of laser irradiation, ranging from 3 minutes at 5 watts to 5 minutes at 15 watts, were used. The output power was measured before, during and after the procedure using a Joule/Watt meter (Ophir Optics, Israel). Two types of fiber optics were used: 600 μm and 1200 μm in diameter.
Wistar Furth female rats, age 6 to 7 weeks and weighing 100 to 125 grams, were chosen for the study. The model is a metastatic transplantable rat mammary tumor. The tumor strain was the DMBA-4. Tumor cells (about 25,000 cells) were transplanted to the rats by injection into the superficial inguinal area between the skin and the muscle layer. Certain selected rats were injected with tumor cells in both left and right inguinal areas for simultaneous tumor growth.
The rats were fed a special food, a high saturated fat diet, to facilitate the growth of the tumor. The tumor usually grew to about 1 to 4 cm^3 within 10 to 14 days of tumor transplantation. In most cases the rat tumors were treated before they grew beyond 5 cm^3.
Before laser treatment, anesthesia was applied (100 μl xylazine and ketamine solution IM) and the hair overlaying the tumor was clipped and shaved. After the treatment, the rats were maintained in separate cages and still fed with the same high fat diet. […]

## CC1(C)C(/C=C/C=C/C=C/C=C2\N(CCCCS(=O)(=O)O)c3ccc4ccccc4c3C2(C)C)=[N+](CCCCS(=O)(=O)[O-])c2ccc3ccccc3c21 [ICG-H2O, indocyanine green]
Second group, treated by laser with ICG-H2O solution, vs control
  effect on survival rate: did not show any improvement on the survival rate
Whole group, laser treated, data up to Jan. 16, 1995
  Survival Days: 29.0 ± 3.5 days
Whole group, laser treated, up to Apr. 1, 1995
  average survival time after the tumor transplant: 29.0 days
